According to ChEMBL document CHEMBL5126521, “Analgesic Opioid Ligand Discovery Based on Nonmorphinan Scaffolds Derived from Natural Sources” (J Med Chem, 2022):

Columns and labels:
Rattus norvegicus [1] = experiment: Antinociceptive activity in rat at 2.5 to 5 mg/kg, icv
Rattus norvegicus [2] = species: Rattus norvegicus; experiment: Antinociceptive activity in rat; format: functional; conditions: Rattus norvegicus; read-out: ED50
Mus musculus [3] = species: Mus musculus; experiment: Antinociceptive activity in mouse by hot plate test
Mus musculus [4] = experiment: Antinociceptive activity in mouse administered IT by tail pressure test; format: functional
Mus musculus [5] = experiment: Antinociceptive activity in mouse administered sc by tail pressure test; format: functional
Mus musculus [6] = experiment: Antinociceptive activity in mouse administered icv by tail pressure test; format: functional
Mus musculus [7] = experiment: Antinociceptive activity in mouse assessed as tail-flick latency administered icv […]; format: functional
Mus musculus [8] = experiment: Antinociceptive activity in mouse administered icv; format: functional
Rattus norvegicus [9] = experiment: Antinociceptive activity in rat administered iv; format: functional
Mus musculus [10] = species: Mus musculus; experiment: Antinociceptive activity in mouse by tail pressure test; format: functional; conditions: Mus musculus; read-out: ED50
Mus musculus [11] = experiment: Antinociceptive activity in ddY mouse assessed as tail-flick latency administered it by tail flick test; format: functional
Mus musculus [12] = experiment: Antinociceptive activity in Std-ddY mouse at 100 mmHg pressure administered IT by tail pressure test; format: functional
Mus musculus [13] = experiment: Antinociceptive activity in Std-ddY mouse at 100 mmHg pressure administered icv by tail pressure test; format: functional
Mus musculus [14] = experiment: Antinociceptive activity in ddY mouse assessed as tail-flick latency administered icv by tail flick test; format: functional
Mus musculus [15] = experiment: Antinociceptive activity in Std-ddY mouse at 100 mmHg pressure administered sc by tail pressure test; format: functional
Mus musculus [16] = experiment: Antinociceptive activity in Std-ddY mouse at 100 mmHg pressure administered po by tail pressure test; format: functional
[17] = molecular target: Delta-type opioid receptor (Homo sapiens, UniProt P41143); experiment: Displacement of [3H]DPDPE from human DOP expressed in CHO-K1 cell membrane incubated for 60 mins by Microscint-counting analysis; format: cell membranes
Delta-type opioid receptor (Homo sapiens, UniProt P41143), sequence (P41143 whole entry): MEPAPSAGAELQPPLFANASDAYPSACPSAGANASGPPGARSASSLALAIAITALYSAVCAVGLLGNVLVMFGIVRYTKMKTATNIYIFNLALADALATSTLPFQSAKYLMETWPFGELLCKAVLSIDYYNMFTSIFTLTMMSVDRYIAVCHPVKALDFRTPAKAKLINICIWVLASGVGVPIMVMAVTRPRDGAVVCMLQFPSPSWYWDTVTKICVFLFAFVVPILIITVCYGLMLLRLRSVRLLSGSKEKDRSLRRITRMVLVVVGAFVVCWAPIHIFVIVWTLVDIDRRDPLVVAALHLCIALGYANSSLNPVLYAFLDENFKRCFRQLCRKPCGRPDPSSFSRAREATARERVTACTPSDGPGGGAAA

Mu-type opioid receptor [18] = molecular target: T1, Mu-type opioid receptor (Homo sapiens, UniProt P35372); experiment: Displacement of [3H]DAMGO from human MOP expressed in CHO-K1 cell membrane incubated for 60 mins by Microscint-counting analysis; format: cell membranes
T1 sequence (P35372 whole entry): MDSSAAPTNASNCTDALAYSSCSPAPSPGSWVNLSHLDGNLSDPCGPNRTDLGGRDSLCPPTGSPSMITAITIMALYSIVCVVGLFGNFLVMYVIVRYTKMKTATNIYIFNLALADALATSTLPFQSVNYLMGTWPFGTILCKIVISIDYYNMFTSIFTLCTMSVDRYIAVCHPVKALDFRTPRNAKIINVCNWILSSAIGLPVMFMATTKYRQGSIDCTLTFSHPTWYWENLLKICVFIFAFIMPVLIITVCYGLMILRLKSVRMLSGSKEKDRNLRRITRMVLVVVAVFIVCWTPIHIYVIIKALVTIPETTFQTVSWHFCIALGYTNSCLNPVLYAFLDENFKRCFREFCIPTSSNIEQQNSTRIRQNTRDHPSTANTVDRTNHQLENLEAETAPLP

Mu-type opioid receptor [19] = molecular target: T1, Mu-type opioid receptor; experiment: Agonist activity at human MOP expressed in CHO-K1 cell membrane assessed as [35S]GTPgammaS binding; format: functional, cell membranes
Rattus norvegicus [20] = experiment: Antinociceptive activity in Sprague-Dawley rat assessed as tail flick response in warm water administered po; format: functional
Mu-type opioid receptor [21] = molecular target: Mu-type opioid receptor (Cavia porcellus, UniProt P97266); experiment: Displacement of [3H]DAMGO from guinea pig brain membrane MOP incubated for 1 hr by scintillation counter analysis; format: cell membranes
Mu-type opioid receptor (Cavia porcellus, UniProt P97266), sequence (P97266 whole entry): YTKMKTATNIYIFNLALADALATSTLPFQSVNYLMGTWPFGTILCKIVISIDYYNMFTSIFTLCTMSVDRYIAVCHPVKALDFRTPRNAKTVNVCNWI

Mu-type opioid receptor [22] = molecular target: T2, Mu-type opioid receptor (Rattus norvegicus, UniProt P33535); experiment: Agonist activity at recombinant rat MOP stably expressed in CHO-K1 cell membrane assessed as [35S]GTPgammaS binding; format: functional, cell membranes
T2 sequence (P33535 whole entry): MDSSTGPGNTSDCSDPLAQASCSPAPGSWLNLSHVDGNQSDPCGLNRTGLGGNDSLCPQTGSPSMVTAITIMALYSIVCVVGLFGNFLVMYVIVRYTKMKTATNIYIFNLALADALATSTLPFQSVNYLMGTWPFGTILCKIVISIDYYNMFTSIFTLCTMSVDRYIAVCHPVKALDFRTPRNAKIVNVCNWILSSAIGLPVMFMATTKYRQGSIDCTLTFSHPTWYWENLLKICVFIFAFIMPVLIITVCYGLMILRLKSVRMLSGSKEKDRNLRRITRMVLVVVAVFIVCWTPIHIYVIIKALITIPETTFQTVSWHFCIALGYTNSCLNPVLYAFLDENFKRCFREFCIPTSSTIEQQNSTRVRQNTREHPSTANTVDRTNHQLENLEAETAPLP

[23] = Toxicity in sc dosed mouse assessed as antinociceptive activity tolerance; format: organism-based; conditions: in vivo
[24] = Displacement of [3H]DPDPE from guinea pig brain membrane DOP incubated for 2.5 hr by scintillation counter analysis; format: cell membranes, Cavia porcellus
Mus musculus [25] = experiment: Antinociceptive activity in sc dosed mouse; format: functional
[26] = molecular target: Delta-type opioid receptor (Rattus norvegicus, UniProt P33533); experiment: Agonist activity at recombinant rat DOP stably expressed in CHO-K1 cell membrane assessed as [35S]GTPgammaS binding; format: functional, cell membranes
Delta-type opioid receptor (Rattus norvegicus, UniProt P33533), sequence (P33533 whole entry): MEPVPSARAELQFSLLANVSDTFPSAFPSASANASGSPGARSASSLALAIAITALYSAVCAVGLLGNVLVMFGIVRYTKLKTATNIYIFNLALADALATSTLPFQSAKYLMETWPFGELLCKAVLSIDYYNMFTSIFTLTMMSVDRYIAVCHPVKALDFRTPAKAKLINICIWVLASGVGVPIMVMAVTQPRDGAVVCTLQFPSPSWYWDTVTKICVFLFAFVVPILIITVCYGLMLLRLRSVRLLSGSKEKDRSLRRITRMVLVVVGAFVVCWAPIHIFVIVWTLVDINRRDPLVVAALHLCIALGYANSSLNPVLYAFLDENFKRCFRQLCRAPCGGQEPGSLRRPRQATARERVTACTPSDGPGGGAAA

[27] = molecular target: Kappa-type opioid receptor (Cavia porcellus, UniProt P41144); experiment: Displacement of [3H]U69593 from guinea pig brain membrane KOP incubated for 1 hr by scintillation counter analysis; format: cell membranes
Kappa-type opioid receptor (Cavia porcellus, UniProt P41144), sequence (P41144 whole entry): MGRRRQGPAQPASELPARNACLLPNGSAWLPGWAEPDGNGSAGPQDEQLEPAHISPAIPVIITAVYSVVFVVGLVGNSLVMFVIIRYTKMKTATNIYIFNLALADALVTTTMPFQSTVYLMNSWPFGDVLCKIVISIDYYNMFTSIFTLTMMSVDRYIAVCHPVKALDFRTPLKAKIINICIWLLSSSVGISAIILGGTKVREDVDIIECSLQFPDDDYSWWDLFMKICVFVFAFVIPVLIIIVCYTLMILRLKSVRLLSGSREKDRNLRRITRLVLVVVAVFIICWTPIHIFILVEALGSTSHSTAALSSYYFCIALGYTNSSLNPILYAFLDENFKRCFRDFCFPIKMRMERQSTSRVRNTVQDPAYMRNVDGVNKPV

Mus musculus [28] = experiment: Antinociceptive activity in po dosed mouse by tail flick assay; format: functional
[29] = Toxicity in po dosed mouse assessed as antinociceptive activity tolerance by tail flick assay; format: organism-based; conditions: in vivo
[30] = molecular target: T3, Kappa-type opioid receptor (Homo sapiens, UniProt P41145); experiment: Binding affinity to human KOP stably expressed in CHO cell membrane assessed as [35S]GTPgammaS binding; format: cell membranes; conditions: filed as antagonist
T3 sequence (P41145 whole entry): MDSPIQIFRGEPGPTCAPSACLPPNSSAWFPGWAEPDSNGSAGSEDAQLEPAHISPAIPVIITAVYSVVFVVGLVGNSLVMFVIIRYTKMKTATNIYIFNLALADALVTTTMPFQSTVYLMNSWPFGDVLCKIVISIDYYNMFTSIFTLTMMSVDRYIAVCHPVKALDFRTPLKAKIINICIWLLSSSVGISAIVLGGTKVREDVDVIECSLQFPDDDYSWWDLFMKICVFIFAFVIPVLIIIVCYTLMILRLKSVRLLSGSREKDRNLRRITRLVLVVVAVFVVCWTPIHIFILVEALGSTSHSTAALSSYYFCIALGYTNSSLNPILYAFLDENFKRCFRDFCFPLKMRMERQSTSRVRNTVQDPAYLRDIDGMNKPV

Mu-type opioid receptor [31] = molecular target: T2, Mu-type opioid receptor; experiment: Displacement of [3H]DAMGO from rat MOP stably expressed in CHO cell membrane; format: cell membranes
Mu-type opioid receptor [32] = molecular target: T1, Mu-type opioid receptor; experiment: Antagonist activity at human MOP stably expressed in CHO cell membrane assessed as [35S]GTPgammaS binding; format: functional, cell membranes
[33] = molecular target: Kappa-type opioid receptor (Rattus norvegicus, UniProt P34975); experiment: Displacement of [3H]diprenorphine from rat KOP stably expressed in CHO cell membrane; format: cell membranes
Kappa-type opioid receptor (Rattus norvegicus, UniProt P34975), sequence (P34975 whole entry): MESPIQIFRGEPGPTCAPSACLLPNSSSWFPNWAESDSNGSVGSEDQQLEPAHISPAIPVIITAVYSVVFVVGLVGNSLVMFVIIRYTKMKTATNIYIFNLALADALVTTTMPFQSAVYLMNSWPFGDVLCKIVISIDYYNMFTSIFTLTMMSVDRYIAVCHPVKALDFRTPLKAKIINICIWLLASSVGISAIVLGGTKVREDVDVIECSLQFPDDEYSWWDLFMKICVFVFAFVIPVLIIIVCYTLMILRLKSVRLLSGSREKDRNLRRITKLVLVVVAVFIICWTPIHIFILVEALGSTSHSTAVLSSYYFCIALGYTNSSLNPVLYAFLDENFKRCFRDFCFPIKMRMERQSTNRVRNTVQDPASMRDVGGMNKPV

Mus musculus [34] = experiment: Antinociceptive activity in icv dosed C57BL/6J mouse assessed as tail withdrawal latency from warm water; format: functional
[35] = Stability in human plasma assessed as half life; format: ADME, cell-free
[36] = Stability in rat plasma assessed as half life; format: ADME, cell-free
Rattus norvegicus [37] = experiment: Antinociceptive activity in Sprague-Dawley rat assessed as tail flick response in warm water administered iv; format: functional
[38] = molecular target: T3, Kappa-type opioid receptor; experiment: Displacement of [3H]U69593 from human KOP expressed in CHO-K1 cell membrane incubated for 60 mins by Microscint-counting analysis; format: cell membranes
Mu-type opioid receptor [39] = molecular target: T1, Mu-type opioid receptor; experiment: Agonist activity at human MOP expressed in CHO-K1 cell membrane assessed as [35S]GTPgammaS binding relative to control; format: functional, cell membranes; conditions: filed as agonist
Rattus norvegicus [40] = experiment: Antinociceptive activity in Sprague-Dawley rat assessed as tail flick response in warm water administered icv; format: functional
[41] = molecular target: Kappa-type opioid receptor (Mus musculus, UniProt P33534); experiment: Displacement of [3H]U-69593 from mouse spinal cord KOP measured after 60 mins by liquid scintillation counter analysis; format: tissue-based
Kappa-type opioid receptor (Mus musculus, UniProt P33534), sequence (P33534 whole entry): as the sequence (P34975 whole entry) above, with E11D, A17S, P51S, V308A counted along it

Mu-type opioid receptor [42] = molecular target: T4, Mu-type opioid receptor (Mus musculus, UniProt P42866); experiment: Displacement of [3H]DAMGO from mouse brain cerebellum MOP incubated for 2 hrs by liquid scintillation counter analysis; format: tissue-based
T4 sequence (P42866 whole entry): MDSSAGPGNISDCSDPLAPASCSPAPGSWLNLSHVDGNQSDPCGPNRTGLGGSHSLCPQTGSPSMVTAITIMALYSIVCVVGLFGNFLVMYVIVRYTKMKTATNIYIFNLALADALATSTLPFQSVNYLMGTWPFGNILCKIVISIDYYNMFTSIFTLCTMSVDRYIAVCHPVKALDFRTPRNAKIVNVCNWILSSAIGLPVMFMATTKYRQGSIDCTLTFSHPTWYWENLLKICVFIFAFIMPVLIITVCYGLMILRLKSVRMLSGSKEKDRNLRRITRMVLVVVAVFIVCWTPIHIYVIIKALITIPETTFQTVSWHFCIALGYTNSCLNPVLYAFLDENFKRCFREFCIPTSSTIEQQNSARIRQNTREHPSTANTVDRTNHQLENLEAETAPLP

Mus musculus [43] = experiment: Antinociceptive activity in mouse administered po; format: functional
Mu-type opioid receptor [44] = molecular target: T4, Mu-type opioid receptor; experiment: Displacement of [3H]DAMGO from mouse spinal cord MOP measured after 60 mins by liquid scintillation counter analysis; format: tissue-based
[45] = molecular target: T5, Delta-type opioid receptor (Mus musculus, UniProt P32300); experiment: Displacement of [3H]deltorphin-II from mouse spinal cord DOP measured after 60 mins by liquid scintillation counter analysis; format: tissue-based
T5 sequence (P32300 whole entry): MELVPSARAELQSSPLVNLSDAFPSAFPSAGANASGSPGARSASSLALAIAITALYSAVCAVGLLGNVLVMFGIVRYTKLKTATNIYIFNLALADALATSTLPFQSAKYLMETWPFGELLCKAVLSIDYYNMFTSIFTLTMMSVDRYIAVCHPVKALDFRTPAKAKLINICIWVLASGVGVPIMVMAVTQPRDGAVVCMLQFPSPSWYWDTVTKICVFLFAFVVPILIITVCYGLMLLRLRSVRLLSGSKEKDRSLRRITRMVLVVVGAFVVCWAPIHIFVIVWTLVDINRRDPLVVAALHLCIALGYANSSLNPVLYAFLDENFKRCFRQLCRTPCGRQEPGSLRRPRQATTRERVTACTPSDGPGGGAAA

[46] = molecular target: T5, Delta-type opioid receptor; experiment: Displacement of [3H]DPDPE from mouse brain cerebellum DOP incubated for 2 hrs by liquid scintillation counter analysis; format: tissue-based
Mus musculus [47] = experiment: Antinociceptive activity in mouse administered IT; format: functional
Mus musculus [48] = experiment: Antinociceptive activity in mouse administered sc; format: functional
[49] = molecular target: T5, Delta-type opioid receptor; experiment: Displacement of [3H]DPDPE from mouse DOP stably expressed in CHO cell membrane; format: cell membranes
[50] = molecular target: T3, Kappa-type opioid receptor; experiment: Antagonist activity at human KOP stably expressed in CHO cell membrane assessed as [35S]GTPgammaS binding; format: functional, cell membranes

CN1CC[C@]23c4c5ccc(O)c4O[C@H]2[C@@H](O)C=C[C@H]3[C@H]1C5 [MORPHINE] gave an ED50 (Rattus norvegicus [1]) of 169 µmol/kg, an ED50 (Rattus norvegicus [2]) of 5.8 µmol/kg and an ED50 (Mus musculus [3]) of 11.3 µmol/kg. The ED50 (Mus musculus [4]) was 0.72 pmol, the ED50 (Mus musculus [5]) was 12.2 µmol/kg and the ED50 (Mus musculus [6]) was 1.05 nmol. It also gave an ED50 (Mus musculus [7]) of 17.3 nmol, an ED50 (Mus musculus [8]) of 8.7 nmol and an ED50 (Rattus norvegicus [9]) of 1.6 µmol/kg. The ED50 (Mus musculus [10]) was 77.2 µmol/kg.

N=C(N)NCCC[C@@H](NC(=O)[C@@H](N)Cc1ccc(O)cc1)C(=O)N[C@@H](Cc1ccccc1)C(=O)NCCC(=O)O gave an ED50 (Mus musculus [11]) of 0.3 pmol, an ED50 (Mus musculus [12]) of 0.5 pmol and an ED50 (Mus musculus [13]) of 3.1 pmol. For the same compound, the ED50 (Mus musculus [14]) was 1.3 pmol, the ED50 (Mus musculus [15]) was 0.8 µmol/kg and the ED50 (Mus musculus [16]) was 70.1 µmol/kg.

With NC(=O)[C@@H]1CCCCNC(=O)CC[C@@H](NC(=O)[C@@H](N)Cc2ccc(O)cc2)C(=O)N[C@@H](Cc2ccccc2)C(=O)N[C@@H](Cc2ccccc2)C(=O)N1 the Ki [17] was 82 nM, the Ki (Mu-type opioid receptor [18]) was 0.96 nM and the EC50 (Mu-type opioid receptor [19]) was 1.5 nM. The ED50 (Rattus norvegicus [20]) was 3.5 µmol.

Work on CC[C@@H]1CN2CC[C@]3(O)c4c(ccc(F)c4OC)N[C@@H]3[C@@H]2C[C@@H]1/C(=C\OC)C(=O)OC yielded a Ki (Mu-type opioid receptor [21]) of 2.1 nM, an EC50 (Mu-type opioid receptor [22]) of 18 nM and an ED50 [23] of 0.09 mg/kg. For the same compound, the Ki [24] was 7 nM, the ED50 (Mus musculus [25]) was 0.06 mg/kg and the EC50 [26] was 61 nM. It also gave a Ki [27] of 29 nM, an ED50 (Mus musculus [28]) of 0.26 mg/kg and an ED50 [29] of 0.45 mg/kg.

Work on C[C@@H]1C(=O)N[C@@H](Cc2ccccc2)C(=O)N[C@H](Cc2c[nH]c3ccccc23)C(=O)N[C@@H](Cc2ccccc2)C(=O)N1C yielded a Kb [30] of 103 nM, a Ki (Mu-type opioid receptor [31]) of 257 nM and an IC50 (Mu-type opioid receptor [32]) of 321 nM. The Ki [33] was 76.9 nM and the ED50 (Mus musculus [34]) was 4.19 nmol.

For NC(=O)CNC(=O)[C@@H]1CCC(=O)NCCCC[C@@H](NC(=O)[C@@H](N)Cc2ccc(O)cc2)C(=O)N[C@@H](Cc2c[nH]c3ccccc23)C(=O)N[C@@H](Cc2ccccc2)C(=O)N1, the Ki [17] was 127 nM, the Ki (Mu-type opioid receptor [18]) was 0.68 nM and the half-life [35] was 150 h. The half-life [36] was 81 h, the ED50 (Rattus norvegicus [37]) was 1.5 mg/kg and the Ki [38] was 5120 nM. The Emax (Mu-type opioid receptor [39]) was 100%, the EC50 (Mu-type opioid receptor [19]) was 1.01 nM and the ED50 (Rattus norvegicus [40]) was 0.019 nmol.

For N=C(N)NCCC[C@@H](NC(=O)[C@H](Cc1ccc(O)cc1)NC(=N)N)C(=O)N[C@@H](Cc1ccccc1)C(=O)NCCC(=O)O, the Ki [41] was over 1000 nM, the Ki (Mu-type opioid receptor [42]) was 0.67 nM and the ED50 (Mus musculus [43]) was 19 mg/kg. It also gave a Ki (Mu-type opioid receptor [44]) of 12.9 nM, a Ki [45] of over 1000 nM and a Ki [46] of 160 nM. It also gave an ED50 (Mus musculus [47]) of 0.34 pmol and an ED50 (Mus musculus [48]) of 0.24 mg/kg.

For C[C@@H]1NC(=O)[C@H]2CCCN2C(=O)[C@H](Cc2ccccc2)NC(=O)[C@@H](Cc2c[nH]c3ccccc23)NC1=O, the Ki (Mu-type opioid receptor [31]) was 299 nM, the Ki [49] was 10000 nM and the IC50 (Mu-type opioid receptor [32]) was 1470 nM. For the same compound, the IC50 [50] was 397 nM, the Ki [33] was 167 nM and the ED50 (Mus musculus [34]) was 1.04 nmol.
